Patent publication US12011444B2, “N-substituted indole derivatives as PGE2 receptor modulators” (Idorsia Pharmaceuticals Ltd, priority 2015, dated 2024)

What was measured:
EP2 = EP2 (Homo sapiens (Human), UniProt P43116);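 also: antagonism of PGE2-stimulated cAMP accumulation in SF295 human glioblastoma cells with endogenous EP2, cAMP read by HTRF, expressed relative to DMSO control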
EP4 = EP4 (Homo sapiens (Human), UniProt P35408); test: hEP4 cAMP assay (BT549 breast cancer cells, HTRF cAMP); format: cell-based
EP4, sequence (P35408 whole entry): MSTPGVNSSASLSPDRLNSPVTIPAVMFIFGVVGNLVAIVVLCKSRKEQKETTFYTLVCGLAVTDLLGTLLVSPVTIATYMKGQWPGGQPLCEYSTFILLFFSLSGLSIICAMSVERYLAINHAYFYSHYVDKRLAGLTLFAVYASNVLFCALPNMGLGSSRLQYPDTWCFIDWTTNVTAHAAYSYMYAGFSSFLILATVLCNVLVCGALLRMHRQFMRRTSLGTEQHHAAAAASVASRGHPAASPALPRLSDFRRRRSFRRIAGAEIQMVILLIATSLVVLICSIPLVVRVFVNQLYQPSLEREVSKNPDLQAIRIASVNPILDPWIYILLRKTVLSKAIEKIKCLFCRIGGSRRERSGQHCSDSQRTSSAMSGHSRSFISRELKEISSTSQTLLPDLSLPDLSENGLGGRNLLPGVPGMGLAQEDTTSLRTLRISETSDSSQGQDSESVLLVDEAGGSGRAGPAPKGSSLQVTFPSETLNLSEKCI
Experimental: Plate is pre-incubated 45 minutes at room temperature. Subsequently, 2.5 microliters of PGE2 (final conc. 6 nM) are transferred into the assay plate. Plate is incubated 30 minutes at room temperature.

[1] = antagonistic activity, mean values where measured multiple times
[2] = (*): measured using the cAMP assay

EP2, sequence (P43116 whole entry): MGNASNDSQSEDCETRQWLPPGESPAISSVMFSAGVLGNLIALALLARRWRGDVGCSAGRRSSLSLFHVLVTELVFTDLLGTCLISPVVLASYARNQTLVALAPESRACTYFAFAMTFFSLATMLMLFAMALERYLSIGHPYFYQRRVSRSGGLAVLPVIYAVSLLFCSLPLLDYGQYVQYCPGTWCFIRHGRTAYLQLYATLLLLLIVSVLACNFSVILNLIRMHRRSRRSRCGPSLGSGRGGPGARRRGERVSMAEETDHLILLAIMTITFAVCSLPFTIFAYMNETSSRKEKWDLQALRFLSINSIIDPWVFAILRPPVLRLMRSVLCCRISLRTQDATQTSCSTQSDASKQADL

Compound	IC50 (EP2) [µM]	IC50 (EP4; [1]) [µM]	IC50 (EP4; [2]) [µM]
COc1ccc(F)c2c1cc(C)n2CCNc1cc(-c2ccc(-c3csc(CC(N)=O)n3)cc2)ncn1 [Example 786, 2-[4-(4-{6-[2-(7-Fluoro-4-methoxy-2-methyl-indol-1-yl)-ethylamino]-pyrimidin-4-yl}-phenyl)-thiazol-2-yl]-acetamide]	0.016	0.319	
CCOc1cc(-c2cc(NCCn3c(C)cc4c(C)c(F)c(F)cc43)ncn2)ccc1C(=O)O [Example 787, 4-{6-[2-(5,6-Difluoro-2,4-dimethyl-indol-1-yl)-ethylamino]-pyrimidin-4-yl}-2-ethoxy-benzoic acid]	0.021	0.729	
Cc1ccc(Cl)c2c1cc(C)n2CCNc1cc(-c2ccc(C(=O)O)c(S/C=C/F)c2)ncn1 [Example 788, 4-{6-[2-(7-Chloro-2,4-dimethyl-indol-1-yl)-ethylamino]-pyrimidin-4-yl}-2-((E)-2-fluoro-vinylsulfanyl)-benzoic acid]	0.049	0.925	
Cc1cc2ccccc2n1CCNc1cc(-c2ccc(-c3nnn[nH]3)c(O)c2)ncn1 [Example 789, 5-{6-[2-(2-Methyl-indol-1-yl)-ethylamino]-pyrimidin-4-yl}-2-(1H-tetrazol-5-yl)-phenol]	0.006	0.923	
CCOC(=O)c1sc(-c2cc(NCCn3c(C)cc4c(OC)ccc(F)c43)ncn2)cc1OCC [Example 790, 3-Ethoxy-5-{6-[2-(7-fluoro-4-methoxy-2-methyl-indol-1-yl)-ethylamino]-pyrimidin-4-yl}-thiophene-2-carboxylic acid ethyl ester]	0.042	0.101	
COc1ccc(F)c2c1cc(C)n2CCNc1cc(-c2ccc(C3(C(=O)O)CCCC3)cc2)ncn1 [Example 791, 1-(4-{6-[2-(7-Fluoro-4-methoxy-2-methyl-indol-1-yl)-ethylamino]-pyrimidin-4-yl}-phenyl)-cyclopentanecarboxylic acid]	0.325	0.639	
Cc1cc2ccccc2n1CCNc1cc(-c2ccc(-c3nnn[nH]3)s2)ncn1 [Example 792, [2-(2-Methyl-indol-1-yl)-ethyl]-{6-[5-(1H-tetrazol-5-yl)-thiophen-2-yl]-pyrimidin-4-yl}-amine]	0.002	0.227	
COc1ccc(F)c2c1cc(C)n2CCNc1cc(-c2ccc(-c3nnn[nH]3)s2)ncn1 [Example 793, [2-(7-Fluoro-4-methoxy-2-methyl-indol-1-yl)-ethyl]-{6-[5-(1H-tetrazol-5-yl)-thiophen-2-yl]-pyrimidin-4-yl}-amine]	0.003	0.018	
CCOc1cc(-c2cc(NCCn3c(C#N)cc4c(OC)ccc(F)c43)ncn2)sc1C(=O)NS(=O)(=O)C1CC1 [Example 816, Cyclopropanesuifonic acid (5-{6-[2-(2-cyano-7-fluoro-4-methoxy-indol-1-yl)-ethylamino]-pyrimidin-4-yl}-3-ethoxy-thiophene-2-carbonyl)-amide]	0.024		0.015
CCOc1cc(-c2cc(NCCn3c(C#N)cc4c(OC)ccc(F)c43)ncn2)sc1/C=C/C(=O)O [Example 931, (E)-3-(5-{6-[2-(2-Cyano-7-fluoro-4-methoxy-indol-1-yl)-ethylamino]-pyrimidin-4-yl}-3-ethoxy-thiophen-2-yl)-acrylic acid]	0.035		0.014
CCOc1cc(-c2cc(NCCn3c(C#N)cc4c(Cl)cc(F)c(F)c43)ncn2)sc1C(=O)O [Example 941, 5-{6-[2-(4-Chloro-2-cyano-6,7-difluoro-indol-1-yl)-ethylamino]-pyrimidin-4-yl}-3-ethoxy-thiophene-2-carboxylic acid]	0.011		0.029
CCNc1cc(-c2cc(NCCn3c(C)cc4c(OC)ccc(Cl)c43)ncn2)ccc1C(=O)O [compound 396]	0.001	0.065	
CCNc1cc(-c2cc(NCCn3c(C)cc4c(OC)ccc(F)c43)ncn2)ccc1C(=O)O [compound 397]	0.001	0.02	
CCNc1cc(-c2cc(NCCn3c(C)cc4c(OC)cccc43)ncn2)cc(F)c1C(=O)O [compound 398]	0.003	0.178	
CCNc1cc(-c2cc(NCCn3c(C)cc4c(F)ccc(OC)c43)ncn2)ccc1C(=O)O [compound 399]	0.017	0.483	
CCCOc1cc(-c2cc(NCCn3c(C)cc4c(OC)cccc43)ncn2)ccc1C(=O)O [compound 400]	0.006	0.418	
COc1cc(-c2cc(NCCn3c(C)cc4c(OC)ccc(F)c43)ncn2)cc(Cl)c1C(=O)O [compound 401]	0.019	0.182	
CCOc1cc(-c2cc(NCCn3c(C)cc4c(OC)cc(Cl)cc43)ncn2)ccc1C(=O)O [compound 402]	0.01	0.159	

Compound	IC50 (EP2) [µM]	IC50 (EP4; [1]) [µM]	IC50 (EP4; [2]) [µM]
CCOc1cc(-c2cc(NCCn3c(C)cc4c(OC)cc(F)cc43)ncn2)ccc1C(=O)O [compound 403]	0.02	0.128	
COc1cc(-c2cc(NCCn3c(C)cc4c(OC)ccc(Cl)c43)ncn2)cc(C)c1C(=O)O [compound 404]	0.096	0.448	
CCOc1cc(-c2cc(NCCn3c(C)cc4c(OC)ccc(Cl)c43)ncn2)ccc1C(=O)O [compound 405]	0.018	0.356	
COc1cc(-c2cc(NCCn3c(C)cc4c(OC)ccc(F)c43)ncn2)cc(C)c1C(=O)O [compound 406]	0.047	0.266	
CCOc1cc(-c2cc(NCCn3c(C)cc4c(OC)cccc43)ncn2)cc(F)c1C(=O)O [compound 407]	0.015	0.636	
CCOc1cc(-c2cc(NCCn3c(C)cc4c(OC)cc(F)c(F)c43)ncn2)sc1C(=O)O [compound 408]	0.004	0.003	
CCOc1cc(-c2cc(NCCn3c(C)cc4c(OC)c(Cl)cc(F)c43)ncn2)sc1C(=O)O [compound 409]	0.345	0.146	
Cc1ccc(Cl)c2c1cc(C)n2CCNc1cc(-c2ccc(C(=O)O)c(SC(C)C)c2)ncn1 [compound 410]	0.051	0.39	
Cc1cc2c(F)c(F)ccc2n1CCNc1cc(-c2ccc(C(=O)O)c(CC(C)C)c2)ncn1 [compound 411]	0.02	0.443	
CCCc1cc(-c2cc(NCCn3c(C)cc4c(C)cc(F)cc43)ncn2)cc(Cl)c1C(=O)O [compound 412]	0.036	0.079	
CCCc1cc(-c2cc(NCCn3c(C)cc4c(C)ccc(F)c43)ncn2)cc(Cl)c1C(=O)O [compound 413]	0.029	0.055	
CCCc1cc(-c2cc(NCCn3c(C)cc4cc(C)cc(F)c43)ncn2)cc(Cl)c1C(=O)O [compound 414]	0.035	0.199	
CCCc1cc(-c2cc(NCCn3c(C)cc4c(C)cc(F)cc43)ncn2)cc(F)c1C(=O)O [compound 415]	0.053	0.153	
CCCc1cc(-c2cc(NCCn3c(C)cc4c(C)ccc(F)c43)ncn2)cc(F)c1C(=O)O [compound 416]	0.014	0.099	
CCCc1cc(-c2cc(NCCn3c(C)cc4cc(C)cc(F)c43)ncn2)cc(F)c1C(=O)O [compound 417]	0.028	0.396	
Cc1cc2c(Cl)cc(Cl)cc2n1CCNc1cc(-c2ccc(C(=O)O)c(CC(C)C)c2)ncn1 [compound 418]	0.074	0.691	
Cc1cc2c(Cl)cc(F)cc2n1CCNc1cc(-c2ccc(C(=O)O)c(CC(C)C)c2)ncn1 [compound 419]	0.09	0.403	
